From ChEMBL document CHEMBL1158844, “Two new isoflavones from Ceiba pentandra and their effect on cyclooxygenase-catalyzed prostaglandin biosynthesis” (J Nat Prod, 1998)

Legend:
[1] = target: T1, Prostaglandin G/H synthase 2 (Ovis aries, UniProt P79208); test: Inhibition of sheep placental cotyledons COX2-mediated prostaglandin production
T1 sequence (P79208 whole entry): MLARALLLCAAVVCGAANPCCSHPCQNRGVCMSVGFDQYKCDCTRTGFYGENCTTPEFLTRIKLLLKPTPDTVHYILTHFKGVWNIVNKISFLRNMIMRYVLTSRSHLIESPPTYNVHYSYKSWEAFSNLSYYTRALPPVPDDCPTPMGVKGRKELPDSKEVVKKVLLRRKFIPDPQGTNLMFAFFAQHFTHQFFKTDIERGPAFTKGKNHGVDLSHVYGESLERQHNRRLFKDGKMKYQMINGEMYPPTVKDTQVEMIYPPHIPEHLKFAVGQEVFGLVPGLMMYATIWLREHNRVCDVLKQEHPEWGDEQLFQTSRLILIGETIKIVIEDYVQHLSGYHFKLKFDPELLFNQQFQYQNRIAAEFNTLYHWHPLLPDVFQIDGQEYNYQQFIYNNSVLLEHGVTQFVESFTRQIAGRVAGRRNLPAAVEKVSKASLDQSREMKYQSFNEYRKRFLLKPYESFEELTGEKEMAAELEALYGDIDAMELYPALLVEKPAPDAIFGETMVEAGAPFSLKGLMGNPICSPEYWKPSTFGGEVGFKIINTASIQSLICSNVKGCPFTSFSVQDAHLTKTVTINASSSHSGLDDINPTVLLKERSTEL

[2] = target: T2, Prostaglandin G/H synthase 1 (Bos taurus, UniProt O62664); test: Inhibition of bovine seminal vesicle microsomal COX1-mediated prostaglandin production; assay type: microsomes
T2 sequence (O62664 whole entry): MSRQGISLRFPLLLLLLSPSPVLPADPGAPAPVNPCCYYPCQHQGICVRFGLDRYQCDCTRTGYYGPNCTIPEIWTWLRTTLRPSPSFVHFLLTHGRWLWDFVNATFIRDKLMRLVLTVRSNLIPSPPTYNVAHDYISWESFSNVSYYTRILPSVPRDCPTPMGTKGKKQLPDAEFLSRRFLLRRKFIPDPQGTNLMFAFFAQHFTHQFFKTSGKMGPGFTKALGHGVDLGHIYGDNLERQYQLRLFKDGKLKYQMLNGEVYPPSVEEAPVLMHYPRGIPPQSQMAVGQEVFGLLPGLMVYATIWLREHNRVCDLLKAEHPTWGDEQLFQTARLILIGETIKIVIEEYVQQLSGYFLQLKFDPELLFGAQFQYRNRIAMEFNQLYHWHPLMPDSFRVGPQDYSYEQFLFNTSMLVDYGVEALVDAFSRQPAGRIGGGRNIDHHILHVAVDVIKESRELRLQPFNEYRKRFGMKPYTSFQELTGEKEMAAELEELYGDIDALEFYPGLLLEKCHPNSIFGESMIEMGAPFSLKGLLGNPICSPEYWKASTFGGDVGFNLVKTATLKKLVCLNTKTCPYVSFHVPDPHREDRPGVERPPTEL

IC50 [1] [µM] | IC50 [2] [µM] | SMILES
1200 | 381 | COc1cc(O)c2c(=O)c(-c3cc(OC)c(OC)c(O[C@@H]4O[C@H](CO)[C@@H](O)[C@H](O)[C@H]4O)c3)coc2c1
900 | 97 | COc1cc(O)c2c(=O)c(-c3cc(O)c(OC)c(OC)c3)coc2c1

SMILES | IC50 [1] [µM] | IC50 [2] [µM]
Oc1cc(O)c2c(c1)O[C@H](c1ccc(O)c(O)c1)[C@@H](O)C2 [CIANIDANOL] |  | 80
